Source: US20180320217A1, “METHODS FOR SAMPLING AND MEASURING ORAL LAVAGE PROTEINS” (The Procter & Gamble Company, priority 2017, published 2018)
Several values for one entry are separate records, joined by “and”; a condition that tells them apart may be missing. Equal values may be shown once. Entries after “also recorded” stand apart in the source; their conditions may differ.

Tests used:
[1] = Formation of formazan dyes: NADH and 1-methoxy PMS, absence of malate (TABLE 15); type: biochemical; settings: disodium salt
diaphorase [2] = experiment: Formation of formazan dyes: NADH and diaphorase, absence of malate (TABLE 7); type: biochemical, Clostridium kluyveri; settings: NADH and diaphorase, absence of malate
diaphorase [3] = experiment: Formation of formazan dyes: only diaphorase, not malate (TABLE 13); type: biochemical, Clostridium kluyveri; settings: mean of three experiments
[4] = Formation of formazan dyes: NADH, malate and 1-methoxy PMS (TABLE 16); type: biochemical
oral lavage [5] = experiment: Formation of formazan dyes: oral lavage and 1-Methoxy PMS, absence of malate (TABLE 19); type: biochemical, human; settings: disodium salt
oral lavage [6] = experiment: Formation of formazan dyes: oral lavage and diaphorase, not malate (TABLE 11); type: biochemical, human
diaphorase [7] = experiment: Formation of formazan dyes: only diaphorase and malate (TABLE 14); type: biochemical, Clostridium kluyveri; settings: mean of three experiments
[8] = Formation of formazan dyes: control buffer and 1-Methoxy PMS, absence of malate (TABLE 21); type: biochemical; settings: disodium salt
diaphorase [9] = experiment: Formation of formazan dyes: NADH, diaphorase and malate (TABLE 8); type: biochemical, Clostridium kluyveri; settings: NADH, diaphorase and malate
[10] = test system: Malate dehydrogenase and diaphorase; experiment: Formation of formazan dyes: Malate dehydrogenase and diaphorase, absence of malate (TABLE 9); type: biochemical, pig heart
Malate dehydrogenase = target: T1, Malate dehydrogenase (Sus scrofa, UniProt P00346); experiment: Formation of formazan dyes: Malate dehydrogenase and 1-Methoxy PMS, absence of malate (TABLE 17); type: biochemical, pig heart; parameters: L-malate dehydrogenase (pig heart); purchased Sigma-Aldrich 10127248001 / 10127914001
T1 sequence (P00346 25-338): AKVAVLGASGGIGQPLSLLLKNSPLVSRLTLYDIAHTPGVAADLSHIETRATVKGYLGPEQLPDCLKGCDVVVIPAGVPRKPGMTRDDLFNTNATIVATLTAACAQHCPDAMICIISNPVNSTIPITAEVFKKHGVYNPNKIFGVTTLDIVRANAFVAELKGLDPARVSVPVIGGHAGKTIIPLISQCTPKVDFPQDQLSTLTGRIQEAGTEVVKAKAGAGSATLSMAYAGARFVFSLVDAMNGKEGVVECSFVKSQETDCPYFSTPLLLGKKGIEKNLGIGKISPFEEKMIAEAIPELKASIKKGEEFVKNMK

diaphorase [11] = experiment: Effect of concentrations of tetrazolium salts on formation of formazan dyes (FIGS. 4A-4G); type: biochemical; settings: 15 mM NADH+H, 20 μg diaphorase, pH 7.5; FIGS. 4A to 4G
Description: On the idea that higher concentrations of tetrazolium salts in the assay buffer would likely result in more formazan dyes in the reaction, various concentrations of tetrazolium salts were added to a reaction buffer and the formation of formazan dyes were measured at 0, 30 and 60 minutes. […] The reactions were performed at room temperature. Absorbance was taken at 0, 30 and 60 minutes.

oral lavage [12] = experiment: Formation of formazan dyes: oral lavage, malate and diaphorase (TABLE 12); type: biochemical, human; settings: oral lavage, malate and diaphorase
[13] = Formation of formazan dyes: control buffer, malate and 1-Methoxy PMS (TABLE 22); type: biochemical
[14] = test system: Malate dehydrogenase and diaphorase; experiment: Formation of formazan dyes: Malate dehydrogenase, diaphorase and malate (TABLE 10); type: biochemical, pig heart

COc1cc(-c2ccc(-[n+]3nc(-c4ccc(C(=O)N(CCS(=O)(=O)[O-])CCS(=O)(=O)[O-])cc4)nn3-c3nc4ccccc4s3)c(OC)c2)ccc1-[n+]1nc(-c2ccc(C(=O)N(CCS(=O)(=O)[O-])CCS(=O)(=O)[O-])cc2)nn1-c1nc2ccccc2s1.[Na+].[Na+] [WST-5, 2,2′-Dibenzothiazolyl-5,5′-bis[4-di(2-sulfoethyl)carbamoylphenyl]-3,3′-(3,3′-dimethoxy 4,4′-biphenylene)ditetrazolium, disodium salt]
Absorbance, formation of formazan dyes (Means) [1]: 2.12 and 2.14 and 2.18 and 2.22
Formation of formazan dyes, absorbance, Means 0 h (diaphorase [2]; 0 h): 2.81
Formation of formazan dyes, absorbance, Means 1 h (diaphorase [2]; 1 h): 2.81
Formation of formazan dyes, absorbance, Means 2 h (diaphorase [2]; 2 h): 2.79
Formation of formazan dyes, absorbance, Means 3 h (diaphorase [2]; 3 h): 2.78
Formation of formazan dyes, absorbance, Means 4 h (diaphorase [2]; 4 h): 2.86
Formation of formazan dyes, absorbance, Means 6 h (diaphorase [2]; 6 h): 2.83
Formation of formazan dyes, absorbance, Means 8 h (diaphorase [2]; 8 h): 2.77
Formation of formazan dyes, absorbance, Means 10 h (diaphorase [2]; 10 h): 2.74
Formation of formazan dyes, absorbance, Means 12 h (diaphorase [2]; 12 h): 2.66
Absorbance, formation of formazan dyes (Means) (diaphorase [3]; 0 h): 0.25
Absorbance, formation of formazan dyes (Means) (diaphorase [3]; 1 h): 0.30
Absorbance, formation of formazan dyes (Means) (diaphorase [3]; 2 h): 0.35
Absorbance, formation of formazan dyes (Means) (diaphorase [3]; 3 h): 0.32
Absorbance, formation of formazan dyes (Means) (diaphorase [3]; 4 h): 0.32
Absorbance, formation of formazan dyes (Means) (diaphorase [3]; 6 h): 0.38
Absorbance, formation of formazan dyes (Means) (diaphorase [3]; 8 h): 0.41
Absorbance, formation of formazan dyes (Means) (diaphorase [3]; 10 h): 0.38
Absorbance, formation of formazan dyes (Means) (diaphorase [3]; 12 h): 0.36
Absorbance, formation of formazan dyes (Means) [4]: 1.84
Absorbance, formation of formazan dyes (Means) (oral lavage [5]): 0.77 and 1.11 and 1.29 and 1.39
Formation of formazan dyes, absorbance, Means 0 h (oral lavage [6]; oral lavage and diaphorase, not malate, 0 h): 0.60
Formation of formazan dyes, absorbance, Means 1 h (oral lavage [6]; oral lavage and diaphorase, not malate, 1 h): 0.72
Formation of formazan dyes, absorbance, Means 2 h (oral lavage [6]; oral lavage and diaphorase, not malate, 2 h): 0.77
Formation of formazan dyes, absorbance, Means 3 h (oral lavage [6]; oral lavage and diaphorase, not malate, 3 h): 0.80
Formation of formazan dyes, absorbance, Means 4 h (oral lavage [6]; oral lavage and diaphorase, not malate, 4 h): 0.78
Formation of formazan dyes, absorbance, Means 6 h (oral lavage [6]; oral lavage and diaphorase, not malate, 6 h): 0.83
Formation of formazan dyes, absorbance, Means 8 h (oral lavage [6]; oral lavage and diaphorase, not malate, 8 h): 0.84
Formation of formazan dyes, absorbance, Means 10 h (oral lavage [6]; oral lavage and diaphorase, not malate, 10 h): 0.81
Formation of formazan dyes, absorbance, Means 12 h (oral lavage [6]; oral lavage and diaphorase, not malate, 12 h): 0.80
reduction to formazan dyes by pooled oral lavage (oral lavage [6]; pooled oral lavage of high bleeder group, diaphorase, no added malate (TABLE 11)): partially reduced to formazan dyes
Absorbance, formation of formazan dyes (Means) (diaphorase [7]; 0 h): 0.09
Absorbance, formation of formazan dyes (Means) (diaphorase [7]; 1 h): 0.12
Absorbance, formation of formazan dyes (Means) (diaphorase [7]; 2 h): 0.15
Absorbance, formation of formazan dyes (Means) (diaphorase [7]; 3 h): 0.18
Absorbance, formation of formazan dyes (Means) (diaphorase [7]; 4 h): 0.21
Absorbance, formation of formazan dyes (Means) (diaphorase [7]; 6 h): 0.23
Absorbance, formation of formazan dyes (Means) (diaphorase [7]; 8 h): 0.26
Absorbance, formation of formazan dyes (Means) (diaphorase [7]; 10 h): 0.29
Absorbance, formation of formazan dyes (Means) (diaphorase [7]; 12 h): 0.32
Absorbance, formation of formazan dyes (Means) [8]: 0.33 and 0.45 and 0.48 and 0.55
Formation of formazan dyes, absorbance, Means 0 h (diaphorase [9]; 0 h): 2.62
Formation of formazan dyes, absorbance, Means 1 h (diaphorase [9]; 1 h): 2.48
Formation of formazan dyes, absorbance, Means 2 h (diaphorase [9]; 2 h): 2.44
Formation of formazan dyes, absorbance, Means 3 h (diaphorase [9]; 3 h): 2.41
Formation of formazan dyes, absorbance, Means 4 h (diaphorase [9]; 4 h): 2.45
Formation of formazan dyes, absorbance, Means 6 h (diaphorase [9]; 6 h): 2.41
Formation of formazan dyes, absorbance, Means 8 h (diaphorase [9]; 8 h): 2.36
Formation of formazan dyes, absorbance, Means 10 h (diaphorase [9]; 10 h): 2.31
Formation of formazan dyes, absorbance, Means 12 h (diaphorase [9]; 12 h): 2.26
Formation of formazan dyes, absorbance, Means 0 h ([10]; Malate dehydrogenase and diaphorase, absence of malate, 0 h): 0.83
Formation of formazan dyes, absorbance, Means 1 h ([10]; Malate dehydrogenase and diaphorase, absence of malate, 1 h): 1.35
Formation of formazan dyes, absorbance, Means 2 h ([10]; Malate dehydrogenase and diaphorase, absence of malate, 2 h): 1.58
Formation of formazan dyes, absorbance, Means 3 h ([10]; Malate dehydrogenase and diaphorase, absence of malate, 3 h): 1.74
Formation of formazan dyes, absorbance, Means 4 h ([10]; Malate dehydrogenase and diaphorase, absence of malate, 4 h): 1.86
Formation of formazan dyes, absorbance, Means 6 h ([10]; Malate dehydrogenase and diaphorase, absence of malate, 6 h): 2.06
Formation of formazan dyes, absorbance, Means 8 h ([10]; Malate dehydrogenase and diaphorase, absence of malate, 8 h): 2.24
Formation of formazan dyes, absorbance, Means 10 h ([10]; Malate dehydrogenase and diaphorase, absence of malate, 10 h): 2.33
Formation of formazan dyes, absorbance, Means 12 h ([10]; Malate dehydrogenase and diaphorase, absence of malate, 12 h): 2.33
reduction of tetrazolium dye in the absence of substrate malate ([10]; malate dehydrogenase and diaphorase (TABLE 9)): partially reduced
reduction by malate dehydrogenase alone (Malate dehydrogenase): did not catalyze the reduction
Absorbance, formation of formazan dyes (Means) (Malate dehydrogenase; disodium salt): 0.24 and 0.37 and 0.41 and 0.43
concentration of tetrazolium salt at which absorbance reached peaks (diaphorase [11]): 1 mM
Formation of formazan dyes, absorbance, Means 0 h (oral lavage [12]; 0 h): 0.57
Formation of formazan dyes, absorbance, Means 1 h (oral lavage [12]; 1 h): 0.74
Formation of formazan dyes, absorbance, Means 2 h (oral lavage [12]; 2 h): 0.80
Formation of formazan dyes, absorbance, Means 3 h (oral lavage [12]; 3 h): 0.75
Formation of formazan dyes, absorbance, Means 4 h (oral lavage [12]; 4 h): 0.67
Formation of formazan dyes, absorbance, Means 6 h (oral lavage [12]; 6 h): 0.85
Formation of formazan dyes, absorbance, Means 8 h (oral lavage [12]; 8 h): 0.90
Formation of formazan dyes, absorbance, Means 10 h (oral lavage [12]; 10 h): 1.02
Formation of formazan dyes, absorbance, Means 12 h (oral lavage [12]; 12 h): 1.08
Means absorbance 0 h [13]: 0.13
Means absorbance 1 h [13]: 0.15
Means absorbance 2 h [13]: 0.16
Means absorbance 3 h [13]: 0.16
Formation of formazan dyes, absorbance, Means 0 h ([14]; Malate dehydrogenase, diaphorase and malate, 0 h): 0.75
Formation of formazan dyes, absorbance, Means 1 h ([14]; Malate dehydrogenase, diaphorase and malate, 1 h): 1.32
Formation of formazan dyes, absorbance, Means 2 h ([14]; Malate dehydrogenase, diaphorase and malate, 2 h): 1.67
Formation of formazan dyes, absorbance, Means 3 h ([14]; Malate dehydrogenase, diaphorase and malate, 3 h): 1.93
Formation of formazan dyes, absorbance, Means 4 h ([14]; Malate dehydrogenase, diaphorase and malate, 4 h): 2.04
Formation of formazan dyes, absorbance, Means 6 h ([14]; Malate dehydrogenase, diaphorase and malate, 6 h): 2.20
Formation of formazan dyes, absorbance, Means 8 h ([14]; Malate dehydrogenase, diaphorase and malate, 8 h): 2.34
Formation of formazan dyes, absorbance, Means 10 h ([14]; Malate dehydrogenase, diaphorase and malate, 10 h): 2.49
Formation of formazan dyes, absorbance, Means 12 h ([14]; Malate dehydrogenase, diaphorase and malate, 12 h): 2.60
conversion to reduced formazan dyes ([14]; malate dehydrogenase, diaphorase and malate (TABLE 10), disodium salt): converted to reduced formazan dyes in a time-dependent fashion; also recorded: able to catalyze the reduction
